These results are taken from patent publication US12084445B2, “Broad-spectrum carbapenems” (VenatoRx Pharmaceuticals, Inc., priority 2018, dated 2024).

Read-outs that look alike come from different tables or passages of the source.

Format in all cases: cell-based
The test system of experiment [1] is S. aureus ATCC 33591 (methicillin-resistant). The experiment can be described thus: broth microdilution MIC assay, S. aureus ATCC 33591. The note with it: Staphylococcus aureus, ATCC 33591 / MRSA. In outline:
(§1)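 Colonies from Mueller Hinton II agar → MH broth (divalent cations supplemented), 37 °C, 200 rpm, 3-5 h → OD600-adjusted to 5×10^5 CFU/mL final → 2-fold serial compound dilutions → 16-20 h, 37 °C → visual MIC.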
(In broth dilution the organism is exposed to a series of concentrations in liquid medium.)

Experiment [2] relates to E. coli ATCC 25922 (wild-type/QC strain). Kind of experiment: broth microdilution MIC assay, E. coli ATCC 25922. Particulars: Escherichia coli. The procedure, abridged: as §1
Experiment [3] relates to S. aureus ATCC 29213 (methicillin sensitive). Kind of experiment: broth microdilution MIC assay, S. aureus ATCC 29213. The note with it: Staphylococcus aureus, ATCC 29213 / MSSA. The protocol: (§2) To determine the ability of test compounds to potentiate the inhibition of the growth of bacterial strains, classic cell-based broth microdilution MIC assays were employed. MIC assays are performed according to CLSI methods except where otherwise noted (CLSI, 2011 and CLSI, 2009). The reference strains S. aureus ATCC 29213 (methicillin sensitive), S. aureus ATCC 33591 (methicillin-resistant), E. coli ATCC 25922 (wild-type/QC strain), P. aeruginosa ATCC 27853 (wild-type/QC strain), and the clinical isolate P. aeruginosa PA 8 were used to determine the ability of the exemplary carbapenem compounds to inhibit bacterial growth. An expanded panel of methicillin resistance S. aureus (MRSA) and Pseudomonas was also used to determine the ability of exemplary carbapenem compounds to inhibit bacterial growth across a broader representation of those species. To determine activity in MRSA and in addition to S. aureus ATCC 33591, S. aureus USA 300, USA 400 and USA 600, some of the most common clones found to cause human infection, were also used. To further gauge the impact on the carbapenem compounds due to various resistance mechanisms in Pseudomonas, the following strains were included: P. aeruginosa 35151 (hyper-permeable strain), P. aeruginosa AmexAB-OprM (an efflux pump knockout), and P. aeruginosa PA 3 (a clinical isolate of reduced carbapenem susceptibility). Briefly, cryo-preserved bacterial cultures of clinical strains are streaked for isolation on appropriate agar medium, in this case Mueller Hinton II agar. Following incubation to allow formation of colonies, these plates are sealed with parafilm and stored refrigerated for up to two weeks. For preparation of assay inocula and to ensure low variability, at least 5 colonies are picked from the agar plates with an inoculating loop and aseptically transferred to a culture tube containing 3 mL of Mueller-Hinton Broth (supplemented with divalent cations to required levels based on Manufacturers' specification). The broth culture is grown for 3-5 hours at 37° C. with shaking at 200 rpm. Meanwhile, 2-fold serial dilutions of test compounds are conducted in a 96 well plate with a final volume of 75 μL per well at 2-fold the final desired concentration. After the dilution plates are set up the growing cultures are then diluted in a cuvette containing MH II broth and the optical density is measured at 600 nm. Inocula are diluted such that 75 μL of this culture in Mueller-Hinton Broth results in a starting bacterial concentration of 5×10^5 CFU/mL when added to the dilution plates. The plates are incubated 16-20 hours at 37° C. The MIC is read visually as the lowest concentration well with no bacterial growth.
(§3) Representative results are shown in Tables 3, 4, and 5 where A represents an MIC>32 μg/mL, B represents an MIC between 8 and 32 μg/mL inclusive, C represents an MIC between 1 and 4 μg/mL inclusive, and D represents an MIC of <1 μg/mL. NT=Not Tested.

Experiment [4] relates to P. aeruginosa ATCC 27853 (wild-type/QC strain). The experiment can be described thus: broth microdilution MIC assay, P. aeruginosa ATCC 27853. Particulars: Pseudomonas aeruginosa. In outline:
as §1

The subject of experiment [5] is clinical isolate P. aeruginosa PA 8. The experiment can be described thus: broth microdilution MIC assay, P. aeruginosa PA 8. The note with it: Pseudomonas aeruginosa; Table 3; P. aeruginosa PA8. The procedure:
as §2, §3

The mark [6] stands for this setting: Table 3, S. aureus 33591 (MRSA), read-out: S. aureus 33591 (MRSA) MIC.
The mark [7] stands for this setting: ATCC25922, Table 3, E. coli 25922, read-out: E. coli 25922 MIC.
Where [8] appears, read: Table 3, S. aureus 29213 (MSSA), read-out: S. aureus 29213 (MSSA) MIC.
Setting [9] is: ATCC27853, Table 3, P. aeruginosa 27853, read-out: P. aeruginosa 27853 MIC.

Regarding `C[C@@H](O)[C@H]1C(=O)N2C(C(=O)O)=C(S[C@@H]3CCN(C4CCNCC4)C3)[C@H](C)[C@H]12` [Example 1, (4R,5S,6S)-6-((R)-1-hydroxyethyl)-4-methyl-7-oxo-3-(((R)-1-(piperidin-4-yl)pyrrolidin-3-yl)thio)-1-azabicyclo[3.2.0]hept-2-ene-2-carboxylic acid], the MIC in experiment [1] (setting [6]) is 8 to 32 µg/mL; in experiment [2] (setting [7]), under 1 µg/mL; in experiment [3] (setting [8]), under 1 µg/mL; in experiment [4] (setting [9]) it was 1 to 4 µg/mL.
As for `C[C@@H](O)[C@H]1C(=O)N2C(C(=O)O)=C(S[C@H]3CCN(C4CCNCC4)C3)[C@H](C)[C@H]12` [Example 2, (4R,5S,6S)-6-((R)-1-hydroxyethyl)-4-methyl-7-oxo-3-(((S)-1-(piperidin-4-yl)pyrrolidin-3-yl)thio)-1-azabicyclo[3.2.0]hept-2-ene-2-carboxylic acid], the MIC in experiment [1] (setting [6]) was 8 to 32 µg/mL; in experiment [2] (setting [7]) it was under 1 µg/mL; in experiment [5], over 32 µg/mL; in experiment [3] (setting [8]) it was under 1 µg/mL; in experiment [4] (setting [9]) it was 1 to 4 µg/mL.
For `C[C@@H](O)[C@H]1C(=O)N2C(C(=O)O)=C(S[C@@H]3CCN(C4CCCNC4)C3)[C@H](C)[C@H]12` (stereo partly drawn) [Example 4, (4R,5S,6S)-6-((R)-1-hydroxyethyl)-4-methyl-7-oxo-3-(((3R)-1-(piperidin-3-yl)pyrrolidin-3-yl)thio)-1-azabicyclo[3.2.0]hept-2-ene-2-carboxylic acid], the MIC in experiment [1] (setting [6]) was 8 to 32 µg/mL; in experiment [2] (setting [7]), under 1 µg/mL; in experiment [5], 8 to 32 µg/mL; in experiment [3] (setting [8]) it was under 1 µg/mL; in experiment [4] (setting [9]), 1 to 4 µg/mL.
On to `C[C@@H](O)[C@H]1C(=O)N2C(C(=O)O)=C(S[C@@H]3C[C@@H](CO)N(C4CCNCC4)C3)[C@H](C)[C@H]12` [Example 5, (4R,5S,6S)-6-((R)-1-hydroxyethyl)-3-(((3R,5S)-5-(hydroxymethyl)-1-(piperidin-4-yl)pyrrolidin-3-yl)thio)-4-methyl-7-oxo-1-azabicyclo[3.2.0]hept-2-ene-2-carboxylic acid], for which the MIC in experiment [1] (setting [6]) was 8 to 32 µg/mL; in experiment [2] (setting [7]), under 1 µg/mL; in experiment [3] (setting [8]) it was under 1 µg/mL; in experiment [4] (setting [9]), 1 to 4 µg/mL.
Regarding `C[C@@H](O)[C@H]1C(=O)N2C(C(=O)O)=C(S[C@@H]3CCN(C4CCNC4)C3)[C@H](C)[C@H]12` (stereo partly drawn) [Example 6, (4R,5S,6S)-3-(((3R)-[1,3′-bipyrrolidin]-3-yl)thio)-6-((R)-1-hydroxyethyl)-4-methyl-7-oxo-1-azabicyclo[3.2.0]hept-2-ene-2-carboxylic acid], the MIC in experiment [1] (setting [6]) was 8 to 32 µg/mL; in experiment [2] (setting [7]) it was under 1 µg/mL; in experiment [5], 1 to 4 µg/mL; in experiment [3] (setting [8]), under 1 µg/mL; in experiment [4] (setting [9]), 1 to 4 µg/mL.
`C[C@@H](O)[C@H]1C(=O)N2C(C(=O)O)=C(S[C@@H]3CCN(CC4CCNCC4)C3)[C@H](C)[C@H]12` [Example 7, (4R,5S,6S)-6-((R)-1-hydroxyethyl)-4-methyl-7-oxo-3-(((R)-1-(piperidin-4-ylmethyl)pyrrolidin-3-yl)thio)-1-azabicyclo[3.2.0]hept-2-ene-2-carboxylic acid]: the MIC in experiment [1] (setting [6]) is 1 to 4 µg/mL; in experiment [2] (setting [7]), under 1 µg/mL; in experiment [5], 1 to 4 µg/mL; in experiment [3] (setting [8]), under 1 µg/mL; in experiment [4] (setting [9]), 1 to 4 µg/mL.
As to `C[C@@H](O)[C@H]1C(=O)N2C(C(=O)O)=C(S[C@@H]3CCN(C[C@H]4CCCN4)C3)[C@H](C)[C@H]12` [Example 8, (4R,5S,6S)-6-((R)-1-hydroxyethyl)-4-methyl-7-oxo-3-(((R)-1-(((R)-pyrrolidin-2-yl)methyl)pyrrolidin-3-yl)thio)-1-azabicyclo[3.2.0]hept-2-ene-2-carboxylic acid], the MIC in experiment [1] (setting [6]) was 1 to 4 µg/mL; in experiment [2] (setting [7]), under 1 µg/mL; in experiment [5], 8 to 32 µg/mL; in experiment [3] (setting [8]) it was under 1 µg/mL; in experiment [4] (setting [9]), 8 to 32 µg/mL.
For the compound `C[C@@H](O)[C@H]1C(=O)N2C(C(=O)O)=C(S[C@@H]3CCN(Cc4cccnc4)C3)[C@H](C)[C@H]12` [Example 10, (4R,5S,6S)-6-((R)-1-hydroxyethyl)-4-methyl-7-oxo-3-(((R)-1-(pyridin-3-ylmethyl)pyrrolidin-3-yl)thio)-1-azabicyclo[3.2.0]hept-2-ene-2-carboxylic acid], the MIC was 8 to 32 µg/mL in experiment [1] (setting [6]), under 1 µg/mL in experiment [2] (setting [7]), under 1 µg/mL in experiment [3] (setting [8]) and 8 to 32 µg/mL in experiment [4] (setting [9]).
Take `C[C@@H](O)[C@H]1C(=O)N2C(C(=O)O)=C(S[C@@H]3CCN(CC4CCCNC4)C3)[C@H](C)[C@H]12` (stereo partly drawn) [Example 12, (4R,5S,6S)-6-((R)-1-hydroxyethyl)-4-methyl-7-oxo-3-(((3R)-1-(piperidin-3-ylmethyl)pyrrolidin-3-yl)thio)-1-azabicyclo[3.2.0]hept-2-ene-2-carboxylic acid]: the MIC in experiment [1] (setting [6]) is 8 to 32 µg/mL; in experiment [2] (setting [7]), under 1 µg/mL; in experiment [3] (setting [8]), under 1 µg/mL; in experiment [4] (setting [9]), 8 to 32 µg/mL.
In the case of `C[C@@H](O)[C@H]1C(=O)N2C(C(=O)O)=C(S[C@@H]3CCN(CC4CCCCN4)C3)[C@H](C)[C@H]12` (stereo partly drawn) [Example 13, (4R,5S,6S)-6-((R)-1-hydroxyethyl)-4-methyl-7-oxo-3-(((3R)-1-(piperidin-2-ylmethyl)pyrrolidin-3-yl)thio)-1-azabicyclo[3.2.0]hept-2-ene-2-carboxylic acid], the MIC in experiment [1] (setting [6]) was 8 to 32 µg/mL; in experiment [2] (setting [7]), under 1 µg/mL; in experiment [3] (setting [8]), under 1 µg/mL; in experiment [4] (setting [9]), 8 to 32 µg/mL.
Take `C[C@@H](O)[C@H]1C(=O)N2C(C(=O)O)=C(S[C@@H]3CCN(C[C@@H]4CCCN4)C3)[C@H](C)[C@H]12` [Example 14, (4R,5S,6S)-6-((R)-1-hydroxyethyl)-4-methyl-7-oxo-3-(((R)-1-(((S)-pyrrolidin-2-yl)methyl)pyrrolidin-3-yl)thio)-1-azabicyclo[3.2.0]hept-2-ene-2-carboxylic acid]: the MIC in experiment [1] (setting [6]) was 8 to 32 µg/mL; in experiment [2] (setting [7]), under 1 µg/mL; in experiment [3] (setting [8]), under 1 µg/mL; in experiment [4] (setting [9]), 8 to 32 µg/mL.
`C[C@@H](O)[C@H]1C(=O)N2C(C(=O)O)=C(S[C@@H]3CCN(CC4(C)CCNCC4)C3)[C@H](C)[C@H]12` [Example 15, (4R,5S,6S)-6-((R)-1-hydroxyethyl)-4-methyl-3-(((R)-1-((4-methylpiperidin-4-yl)methyl)pyrrolidin-3-yl)thio)-7-oxo-1-azabicyclo[3.2.0]hept-2-ene-2-carboxylic acid]: the MIC in experiment [1] (setting [6]) is 8 to 32 µg/mL; in experiment [2] (setting [7]) it was under 1 µg/mL; in experiment [3] (setting [8]), under 1 µg/mL; in experiment [4] (setting [9]), 8 to 32 µg/mL.
Turning to `C[C@@H](O)[C@H]1C(=O)N2C(C(=O)O)=C(S[C@@H]3CCN(CC4(F)CCNCC4)C3)[C@H](C)[C@H]12` [Example 16, (4R,5S,6S)-3-(((R)-1-((4-fluoropiperidin-4-yl)methyl)pyrrolidin-3-yl)thio)-6-((R)-1-hydroxyethyl)-4-methyl-7-oxo-1-azabicyclo[3.2.0]hept-2-ene-2-carboxylic acid], the MIC is 8 to 32 µg/mL in experiment [1] (read-out: S. aureus 33591 (MRSA) MIC (μg/mL)); under 1 µg/mL in experiment [2] (ATCC25922, read-out: E. coli 25922 MIC (μg/mL)); under 1 µg/mL in experiment [3] (read-out: S. aureus 29213 (MSSA) MIC (μg/mL)); 8 to 32 µg/mL in experiment [4] (ATCC27853, read-out: P. aeruginosa 27853 MIC (μg/mL)).
